This note sets out measurements from patent US10920198B2, “Delta133p53beta and delta133p53gamma isoforms are biomarkers of cancer stem cells” (Centre National de la Recherche Scientifique (CNRS), priority 2015, dated 2021).

Type in all cases: cell-based, human
Assay [1] deals with c-Myc, Oct 3/4, Nanog and Sox 2. The experiment in a line: Expression of pluripotency/reprogramming factors in MDA-MB-231 D3H2LN cells (RT-qPCR, western blot). The following applies: MDA-MB-231 D3H2LN. How it is done: The human breast cancer cell lines MCF-7, MDA-MB 231 D3H2LN and C3LND were grown in MEM supplemented with 10% FCS, sodium pyruvate and glutamine. Following viral infection, cells were used after 24-48 h or subjected to selection with 2 μg/ml puromycin (InvivoGen) or 300 μg/ml hygromycin B (Invitrogen) for two days. Etoposide treatment was performed with final doses of 12.5, 25 and 50 ng/ml for 16 h or 50 ng/ml/day for 7 days.
(§1) The following antibodies were used for immunoblotting: anti-c-Myc (9E10 mouse hybridoma clone), -Nanog (sc-81961, Santa Cruz Biotechnology), -Oct 3/4 (sc-8630, Santa Cruz Biotechnology), -Sox 2 (sc-17320, Santa Cruz Biotechnology), -p53 (DO-1; sc-126 Santa Cruz Biotechnology), -p53 Sapu (Vojtesek et al. 1995), -α-tubulin (clone DM1A, Sigma-Aldrich), -β-actin (clone AC-74 Sigma-Aldrich), -p21 (sc-397 Santa Cruz Biotechnology) and -Flag (clone M2; Sigma-Aldrich). Secondary HRP-conjugated antibodies were from GE Healthcare. For luminescence quantification, cells were serially diluted and incubated with 0.5 mM D-luciferin (Sigma). Luminescence was quantified with a Polarstar Omega instrument (BMG LABTECH).
(§2) Total RNA was extracted (Qiagen) and reverse transcription (RT) was performed with 1-5 μg of total RNA using the SuperScript® III Reverse Transcriptase (Life Technologies) at 50° C. Levels of different mRNAs were quantified by real-time qPCR on a LightCycler480 apparatus (Roche). Briefly, 20 ng cDNA was amplified using 0.168 μM of each primer, 0.2 μM of probe (Table 4) and 1× LightCycler® 480 Probes Master Mix (Roche) for the p53 isoforms, or commercially available primers (Qiagen) and 1× LightCycler® 480 Sybr Green Master Mix (Roche) for the other genes. Data were normalized to the internal standard TBP. The different primers used and their corresponding sequences have been previously described (Bourdon et al., 2005). For each single-well amplification reaction, a threshold cycle (Ct) was calculated by using the LightCycler480 program (Roche) in the exponential phase of amplification. Relative changes in gene expression were determined using the 2ΔΔCt method and reported relative to a control. All quantification studies were performed with at least three independent experiments, repeated twice, for each condition. Data are presented as the arithmetic mean±SEM.
A general note: Quantitative PCR measures a nucleic acid by following its amplification.

The test system of assay [2] is Δ133p53 (α, β and γ) isoforms. The experiment in a line: Expression of Δ133p53 isoforms in MCF-7 cells (RT-qPCR, western blot). The following applies: MCF-7, etoposide treatment; RT-qPCR and western blot.
Description: as §1
Total RNA was extracted (Qiagen) and reverse transcription (RT) was performed with 1-5 μg of total RNA using the SuperScript® III Reverse Transcriptase (Life Technologies) at 50° C. Levels of different mRNAs were quantified by real-time qPCR on a LightCycler480 apparatus (Roche). […] For each single-well amplification reaction, a threshold cycle (Ct) was calculated by using the LightCycler480 program (Roche) in the exponential phase of amplification. Relative changes in gene expression were determined using the 2ΔΔCt method and reported relative to a control. All quantification studies were performed with at least three independent experiments, repeated twice, for each condition. […]

In assay [3] the test system is c-Myc, Sox 2, Oct 3/4 and Nanog. Nature of the assay: Expression of pluripotency/reprogramming factors in MCF-7 cells (RT-qPCR, western blot).
Description: as §1, §2

In assay [4] the test system is Δ133p53 (α, β and γ) isoforms. The experiment in a line: Expression of Δ133p53 isoforms in MDA-MB-231 D3H2LN cells after etoposide. As to conditions: not dose-dependent. How it is done:
(§3) The human breast cancer cell lines MCF-7, MDA-MB 231 […] and […] were grown in MEM supplemented with 10% FCS, sodium pyruvate and glutamine. Following viral infection, cells were used after 24-48 h or subjected to selection with 2 μg/ml puromycin (InvivoGen) or 300 μg/ml hygromycin B (Invitrogen) for two days. Etoposide treatment was performed with final doses of 12.5, 25 and 50 ng/ml for 16 h or 50 ng/ml/day for 7 days.

Assay [5] deals with p53, p21. Nature of the assay: Western blot of p53 and p21 in MDA-MB-231 D3H2LN cells after etoposide. The following applies: MDA-MB-231 D3H2LN (p53 R280K), increasing concentrations of etoposide. As for the experimental part: as §3, with “7 days. […] Secondary HRP-conjugated antibodies were from GE Healthcare. For luminescence quantification, cells were serially diluted and incubated with 0.5 mM D-luciferin (Sigma). Luminescence was quantified with a Polarstar Omega instrument (BMG LABTECH).” for “7 days.”

Assay [6] has as its system MCF-7 cells. The experiment in a line: Mammosphere formation in MCF-7 cells. As to conditions: 50 ng/ml/day for 7 days. How it is done:
For mammosphere formation, 1000 cells/ml (500 cells/well) were plated in Ultra Low Cluster Plate, 24-well, Flat Bottom (Corning Inc) with MammoCult™ Medium enriched with MammoCult™ Proliferation Supplements, hydrocortisone and heparin (Stem Cell Technologies) and cultured for 15 days. For all mammosphere assays, at least three independent experiments for each condition were carried out and repeated 8-12 times. For self-renewal experiments, transfected cells were subjected to a first cycle of mammosphere formation. Upon 15 days of culture the created mammospheres were dissociated and cells were re-plated in identical conditions as for the first plating.

Assay [7] deals with p53, p21. Nature of the assay: Western blot of p53 and p21 in MCF-7 cells after etoposide. The following applies: MCF-7, increasing concentrations of etoposide, 16 hours. As for the experimental part:
as §3, with “7 days. […] Secondary HRP-conjugated antibodies were from GE Healthcare. For luminescence quantification, cells were serially diluted and incubated with 0.5 mM D-luciferin (Sigma). Luminescence was quantified with a Polarstar Omega instrument (BMG LABTECH).” for “7 days.”

Turning to `COc1cc([C@@H]2c3cc4c(cc3[C@@H](O[C@@H]3O[C@@H]5CO[C@@H](C)O[C@H]5[C@H](O)[C@H]3O)[C@H]3COC(=O)[C@H]23)OCO4)cc(OC)c1O` [etoposide, reference compound], the c-Myc expression entry in assay [1] (increasing concentrations of etoposide) is given as “significantly down-regulated”; in assay [3] (MCF-7, increasing concentrations of etoposide, western blot and RT-qPCR), “reduced”. Moreover, the “expression of Nanog, Sox 2 and Oct 3/4” value in assay [1] (incubation with etoposide) is given as “up-regulated”. The Δ133p53 isoforms expression result in assay [2] is reported as “strongly up-regulated in a dose-dependent manner”. Also, the “Oct 3/4, Nanog and Sox 2 expression” value in assay [3] (MCF-7, increasing doses of etoposide, RT-qPCR) is “strongly up-regulated in a dose-dependent manner”. Further, in assay [4], the “expression of Δ133p53 isoforms” value was “up-regulated”. Moreover, the TAp53 expression entry in assay [5] is recorded as “did not affect”. Further, the p21 expression result is “only weakly increased” in assay [5] and “increased” in assay [7]. Moreover, the mammosphere formation result is “did not have any significant effect” in assay [6] (Sh2-transduced MCF-7 cells) and “significantly reduced” in assay [6] (control MCF-7 cells (active TAp53)). The TAp53α level result in assay [7] is reported as “stabilization”.
